Experimental data taken from patent publication US12215140B2, “Method of stabilizing protein contained in specimen and solution for stabilizing protein contained in specimen” (EIKEN KAGAKU KABUSHIKI KAISHA, priority 2018, dated 2025).

Test system: hemoglobin-haptoglobin complex
Assay: Stability of hemoglobin (as hemoglobin-haptoglobin complex) in samples preserved at 37° C. in preservation solution containing 1 unit/L haptoglobin, Hb measured by latex agglutination method (Examples 1 to 7)
Design: species or system human
Settings: for Hb concentration / Recovery ratio with respect to Hb concentration after 0 days / Recovery ratio with respect to Hb after 0 days: 37° C.; for recovery ratio of hemoglobin in the sample: Feces 1, Feces 2, Feces 3
Summary of the method: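 Latex agglutination (anti-human hemoglobin rabbit polyclonal latex) measured Hb in samples stored at 37 °C up to 21 days; values expressed as % recovery versus day 0. Preservation solution: HEPES 40 mmol/L pH 6.8, BSA 0.1%, NaN3 0.1%, haptoglobin 1 unit/L, phenylboronic acid 0–100 mmol/L, optional sugars; ~300 µg/L Hb, 0.5% feces or none.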

[1] = Feces 1, sugar 50 mmol/L + phenylboronic acid 15 mmol/L, 0 days
[2] = Feces 1, sugar 50 mmol/L + phenylboronic acid 15 mmol/L, 7 days
[3] = Feces 1, sugar 50 mmol/L + phenylboronic acid 15 mmol/L, 14 days
[4] = Feces 1, sugar 100 mmol/L + phenylboronic acid 15 mmol/L, 0 days
[5] = Feces 1, sugar 100 mmol/L + phenylboronic acid 15 mmol/L, 0 days (Table 7)
[6] = Feces 1, sugar 100 mmol/L + phenylboronic acid 15 mmol/L, 7 days
[7] = Feces 1, sugar 100 mmol/L + phenylboronic acid 15 mmol/L, 7 days (Table 7)
[8] = Feces 1, sugar 100 mmol/L + phenylboronic acid 15 mmol/L, 14 days
[9] = Feces 1, sugar 100 mmol/L + phenylboronic acid 15 mmol/L, 14 days (Table 7)
[10] = Feces 1, sugar 100 mmol/L + phenylboronic acid 50 mmol/L, 0 days
[11] = Feces 1, sugar 100 mmol/L + phenylboronic acid 50 mmol/L, 7 days
[12] = Feces 1, sugar 100 mmol/L + phenylboronic acid 50 mmol/L, 14 days
[13] = Feces 1, sugar 100 mmol/L, no phenylboronic acid, 0 days
[14] = Feces 1, sugar 100 mmol/L, no phenylboronic acid, 7 days
[15] = Feces 1, sugar 100 mmol/L, no phenylboronic acid, 14 days
[16] = Feces 2, sugar 50 mmol/L + phenylboronic acid 15 mmol/L, 0 days
[17] = Feces 2, sugar 50 mmol/L + phenylboronic acid 15 mmol/L, 7 days
[18] = Feces 2, sugar 50 mmol/L + phenylboronic acid 15 mmol/L, 14 days
[19] = Feces 2, sugar 100 mmol/L + phenylboronic acid 15 mmol/L, 0 days
[20] = Feces 2, sugar 100 mmol/L + phenylboronic acid 15 mmol/L, 0 days (Table 7)
[21] = Feces 2, sugar 100 mmol/L + phenylboronic acid 15 mmol/L, 7 days
[22] = Feces 2, sugar 100 mmol/L + phenylboronic acid 15 mmol/L, 7 days (Table 7)
[23] = Feces 2, sugar 100 mmol/L + phenylboronic acid 15 mmol/L, 14 days
[24] = Feces 2, sugar 100 mmol/L + phenylboronic acid 15 mmol/L, 14 days (Table 7)
[25] = Feces 2, sugar 100 mmol/L + phenylboronic acid 50 mmol/L, 0 days
[26] = Feces 2, sugar 100 mmol/L + phenylboronic acid 50 mmol/L, 7 days
[27] = Feces 2, sugar 100 mmol/L + phenylboronic acid 50 mmol/L, 14 days
[28] = Feces 2, sugar 100 mmol/L, no phenylboronic acid, 0 days
[29] = Feces 2, sugar 100 mmol/L, no phenylboronic acid, 7 days
[30] = Feces 2, sugar 100 mmol/L, no phenylboronic acid, 14 days
[31] = Feces 3, sugar 50 mmol/L + phenylboronic acid 15 mmol/L, 0 days
[32] = Feces 3, sugar 50 mmol/L + phenylboronic acid 15 mmol/L, 7 days
[33] = Feces 3, sugar 50 mmol/L + phenylboronic acid 15 mmol/L, 14 days
[34] = Feces 3, sugar 100 mmol/L + phenylboronic acid 15 mmol/L, 0 days
[35] = Feces 3, sugar 100 mmol/L + phenylboronic acid 15 mmol/L, 0 days (Table 7)
[36] = Feces 3, sugar 100 mmol/L + phenylboronic acid 15 mmol/L, 7 days
[37] = Feces 3, sugar 100 mmol/L + phenylboronic acid 15 mmol/L, 7 days (Table 7)
[38] = Feces 3, sugar 100 mmol/L + phenylboronic acid 15 mmol/L, 14 days
[39] = Feces 3, sugar 100 mmol/L + phenylboronic acid 15 mmol/L, 14 days (Table 7)
[40] = Feces 3, sugar 100 mmol/L + phenylboronic acid 50 mmol/L, 0 days
[41] = Feces 3, sugar 100 mmol/L + phenylboronic acid 50 mmol/L, 7 days
[42] = Feces 3, sugar 100 mmol/L + phenylboronic acid 50 mmol/L, 14 days
[43] = Feces 3, sugar 100 mmol/L, no phenylboronic acid, 0 days
[44] = Feces 3, sugar 100 mmol/L, no phenylboronic acid, 7 days
[45] = Feces 3, sugar 100 mmol/L, no phenylboronic acid, 14 days
[46] = No feces, sugar 50 mmol/L + phenylboronic acid 15 mmol/L, 0 days
[47] = No feces, sugar 50 mmol/L + phenylboronic acid 15 mmol/L, 7 days
[48] = No feces, sugar 50 mmol/L + phenylboronic acid 15 mmol/L, 14 days
[49] = No feces, sugar 100 mmol/L + phenylboronic acid 15 mmol/L, 0 days
[50] = No feces, sugar 100 mmol/L + phenylboronic acid 15 mmol/L, 0 days (Table 7)
[51] = No feces, sugar 100 mmol/L + phenylboronic acid 15 mmol/L, 7 days
[52] = No feces, sugar 100 mmol/L + phenylboronic acid 15 mmol/L, 7 days (Table 7)
[53] = No feces, sugar 100 mmol/L + phenylboronic acid 15 mmol/L, 14 days
[54] = No feces, sugar 100 mmol/L + phenylboronic acid 15 mmol/L, 14 days (Table 7)
[55] = No feces, sugar 100 mmol/L + phenylboronic acid 50 mmol/L, 0 days
[56] = No feces, sugar 100 mmol/L + phenylboronic acid 50 mmol/L, 7 days
[57] = No feces, sugar 100 mmol/L + phenylboronic acid 50 mmol/L, 14 days
[58] = No feces, sugar 100 mmol/L, no phenylboronic acid, 0 days
[59] = No feces, sugar 100 mmol/L, no phenylboronic acid, 7 days
[60] = No feces, sugar 100 mmol/L, no phenylboronic acid, 14 days

OC[C@@H](O)[C@@H](O)[C@H](O)[C@H](O)CO [Mannitol, mannitol]
Hb concentration [1]: 288 µg/L | Recovery ratio with respect to Hb concentration after 0 days [1]: 100% | Hb concentration [2]: 278 µg/L | Recovery ratio with respect to Hb concentration after 0 days [2]: 96% | Hb concentration [3]: 270 µg/L | Recovery ratio with respect to Hb concentration after 0 days [3]: 94% | Hb concentration [4]: 281 µg/L | Recovery ratio with respect to Hb concentration after 0 days [4]: 100% | Hb concentration [5]: 301 µg/L | Recovery ratio with respect to Hb after 0 days [5]: 100% | Hb concentration [6]: 279 µg/L | Recovery ratio with respect to Hb concentration after 0 days [6]: 99% | Hb concentration [7]: 288 µg/L | Recovery ratio with respect to Hb after 0 days [7]: 96% | Hb concentration [8]: 276 µg/L | Recovery ratio with respect to Hb concentration after 0 days [8]: 98% | Hb concentration [9]: 287 µg/L | Recovery ratio with respect to Hb after 0 days [9]: 95% | Hb concentration [10]: 270 µg/L | Recovery ratio with respect to Hb after 0 days [10]: 100% | Hb concentration [11]: 257 µg/L | Recovery ratio with respect to Hb after 0 days [11]: 95% | Hb concentration [12]: 255 µg/L | Recovery ratio with respect to Hb after 0 days [12]: 95% | Hb concentration [13]: 276 µg/L | Recovery ratio with respect to Hb concentration after 0 days [13]: 100% | Hb concentration [14]: 156 µg/L | Recovery ratio with respect to Hb concentration after 0 days [14]: 57% | Hb concentration [15]: 130 µg/L | Recovery ratio with respect to Hb concentration after 0 days [15]: 47% | Hb concentration [16]: 296 µg/L | Recovery ratio with respect to Hb concentration after 0 days [16]: 100% | Hb concentration [17]: 291 µg/L | Recovery ratio with respect to Hb concentration after 0 days [17]: 98% | Hb concentration [18]: 280 µg/L | Recovery ratio with respect to Hb concentration after 0 days [18]: 95% | Hb concentration [19]: 290 µg/L | Recovery ratio with respect to Hb concentration after 0 days [19]: 100% | Hb concentration [20]: 298 µg/L | Recovery ratio with respect to Hb after 0 days [20]: 100% | Hb concentration [21]: 290 µg/L | Recovery ratio with respect to Hb concentration after 0 days [21]: 100% | Hb concentration [22]: 284 µg/L | Recovery ratio with respect to Hb after 0 days [22]: 95% | Hb concentration [23]: 286 µg/L | Recovery ratio with respect to Hb concentration after 0 days [23]: 99% | Hb concentration [24]: 284 µg/L | Recovery ratio with respect to Hb after 0 days [24]: 95% | Hb concentration [25]: 268 µg/L | Recovery ratio with respect to Hb after 0 days [25]: 100% | Hb concentration [26]: 263 µg/L | Recovery ratio with respect to Hb after 0 days [26]: 98% | Hb concentration [27]: 274 µg/L | Recovery ratio with respect to Hb after 0 days [27]: 102% | Hb concentration [28]: 284 µg/L | Recovery ratio with respect to Hb concentration after 0 days [28]: 100% | Hb concentration [29]: 97 µg/L | Recovery ratio with respect to Hb concentration after 0 days [29]: 34% | Hb concentration [30]: 81 µg/L | Recovery ratio with respect to Hb concentration after 0 days [30]: 28% | Hb concentration [31]: 293 µg/L | Recovery ratio with respect to Hb concentration after 0 days [31]: 100% | Hb concentration [32]: 247 µg/L | Recovery ratio with respect to Hb concentration after 0 days [32]: 84% | Hb concentration [33]: 238 µg/L | Recovery ratio with respect to Hb concentration after 0 days [33]: 81% | Hb concentration [34]: 286 µg/L | Recovery ratio with respect to Hb concentration after 0 days [34]: 100% | Hb concentration [35]: 288 µg/L | Recovery ratio with respect to Hb after 0 days [35]: 100% | Hb concentration [36]: 243 µg/L | Recovery ratio with respect to Hb concentration after 0 days [36]: 85% | Hb concentration [37]: 231 µg/L | Recovery ratio with respect to Hb after 0 days [37]: 80% | Hb concentration [38]: 240 µg/L | Recovery ratio with respect to Hb concentration after 0 days [38]: 84% | Hb concentration [39]: 220 µg/L | Recovery ratio with respect to Hb after 0 days [39]: 76% | Hb concentration [40]: 254 µg/L | Recovery ratio with respect to Hb after 0 days [40]: 100% | Hb concentration [41]: 233 µg/L | Recovery ratio with respect to Hb after 0 days [41]: 92% | Hb concentration [42]: 226 µg/L | Recovery ratio with respect to Hb after 0 days [42]: 89% | Hb concentration [43]: 282 µg/L | Recovery ratio with respect to Hb concentration after 0 days [43]: 100% | Hb concentration [44]: 93 µg/L | Recovery ratio with respect to Hb concentration after 0 days [44]: 33% | Hb concentration [45]: 78 µg/L | Recovery ratio with respect to Hb concentration after 0 days [45]: 28% | Hb concentration [46]: 270 µg/L | Recovery ratio with respect to Hb concentration after 0 days [46]: 100% | Hb concentration [47]: 263 µg/L | Recovery ratio with respect to Hb concentration after 0 days [47]: 98% | Hb concentration [48]: 254 µg/L | Recovery ratio with respect to Hb concentration after 0 days [48]: 94% | Hb concentration [49]: 269 µg/L | Recovery ratio with respect to Hb concentration after 0 days [49]: 100% | Hb concentration [50]: 287 µg/L | Recovery ratio with respect to Hb after 0 days [50]: 100% | Hb concentration [51]: 260 µg/L | Recovery ratio with respect to Hb concentration after 0 days [51]: 97% | Hb concentration [52]: 272 µg/L | Recovery ratio with respect to Hb after 0 days [52]: 95% | Hb concentration [53]: 252 µg/L | Recovery ratio with respect to Hb concentration after 0 days [53]: 94% | Hb concentration [54]: 269 µg/L | Recovery ratio with respect to Hb after 0 days [54]: 94% | Hb concentration [55]: 254 µg/L | Recovery ratio with respect to Hb after 0 days [55]: 100% | Hb concentration [56]: 242 µg/L | Recovery ratio with respect to Hb after 0 days [56]: 95% | Hb concentration [57]: 241 µg/L | Recovery ratio with respect to Hb after 0 days [57]: 95% | Hb concentration [58]: 261 µg/L | Recovery ratio with respect to Hb concentration after 0 days [58]: 100% | Hb concentration [59]: 251 µg/L | Recovery ratio with respect to Hb concentration after 0 days [59]: 96% | Hb concentration [60]: 244 µg/L | Recovery ratio with respect to Hb concentration after 0 days [60]: 93% | recovery ratio of hemoglobin in the sample (sugar 100 mmol/L further added to other arylboronic acids (3-CPBA, 3-HPBA, 3-APBA) 15 mmol/L): further improved | recovery ratio of hemoglobin in the sample (sugar 50 or 100 mmol/L further added to phenylboronic acid 15 mmol/L): remarkably improved
